# Measured values reported in ChEMBL document CHEMBL1127147, “Rational design for cytosolic delivery of nucleoside monphosphates : SATE and DTE as enzyme-labile transient phosphate protecting groups” (Bioorg Med Chem Lett, 1993).
# pEC50: −log10 of the molar value.
# Tests used:
# [1] = test system: CEM-SS; test: Tested for antiviral activity against HIV-1 infected human CEM-SS cell line; assay type: functional, cell-based
# [2] = test system: CEM-SS; test: Tested for cytotoxicity against human CEM-SS cell line; assay type: functional
# [3] = test system: CEM-TK(-); test: Tested for cytotoxicity against human CEM-TK- cell line (deficient in thymidine kinase activity); assay type: functional
# [4] = test system: CEM-TK(-); test: Tested for antiviral activity against HIV-1 infected human CEM-TK- cell line (deficient in thymidine kinase activity); assay type: functional, cell-based
# [5] = test system: CEM-SS; test: Tested for cytotoxicity against human CEM-SS cell line; Percent reduction 40; assay type: functional
SMILES,pEC50 [1],CC50 [2] [µM],CC50 [3] [µM],pEC50 [4],CC50 [5] [µM]
CC(=O)SCCOP(=O)(OCCSC(C)=O)OCC1CCC(n2ccc(=O)[nH]c2=O)O1 (stereo not drawn),5.30,900,70,5.40,–
O=c1ccn(C2CCC(COP(=O)(OCCSSCCO)OCCSSCCO)O2)c(=O)[nH]1 (stereo not drawn),4.22,–,80,5.10,> 100
